This is an account of results in publication PMC8032764 (Scientific Reports, 2021).

pIC50: −log10 of the molar value.

The subject of one series is male Lister Hooded rats. The experiment in a line: Diazepam-induced spatial learning impairment in the Morris water maze. The class given is in vivo, rat. As for the experimental part: The current study used a modified version of the standard acquisition protocol, in which pre-trained rats had to learn to locate a new platform position during six trials on the test day, as described previously. Subjects were semi-randomly divided into treatment groups based on their performance on the last training day. A computer tracking system (HVS Image Ltd, UK) was used to analyse each rat’s swim path on-line.
Latency, pathlength and swim speed (Supplementary Fig. S2) were analysed with a one-factor ANOVA. For the probe trial, to determine whether each treatment group had learned the spatial position of the platform, within-subjects ANOVA was used to compare percent time spent in the platform quadrant with the left, right and opposite quadrants. All significant cases were followed by a post hoc Newman–Keuls test. In addition, a comparison between vehicle treated and diazepam-treated rats on the percent time spent in the platform quadrant was analysed using an unpaired t-test.

The subject of a further series is male Sprague-Dawley rats. Put plainly: Prepulse inhibition. The class given is in vivo, rat. To be noted: 1, 3 and 10 mg/kg p.o., 30 min prior to testing. As for the experimental part:
intensities (72, 76, 80, 84 dB) at total plasma concentrations of 56 ± 20, 169 ± 20, and […]
Compound administered at 1, 3 and 10 mg/kg p.o. to male Sprague-Dawley rats 30 min prior to testing. Bars indicate mean percent prepulse inhibition (% PPI) ± SEM; 10 animals per dose group. Background noise: 68 dB. Startle pulse: 12 0 dB. For full methods refer to:
Nordquist et al. (2008). Effects of aripiprazole/OPC-14597 on motor activity, pharmacological models of psychosis, and brain activity in rats. Neuropharmacology , 54,405-416.
Animals were euthanized at the end of testing and plasma samples were collected approximately 60 min post administration; n = 4 rats per group.
(1 picture or pasted object on this page, not shown here)

A further series concerns the target human GABAA α5β3γ2 (Homo sapiens, UniProt P18507+P31644). Put plainly: Two-electrode voltage clamp in Xenopus oocytes, current induced by EC10 of GABA. The class given is cell-based. Also on record: expressed in transfected cells; host or cells: Xenopus laevis oocytes, cRNA injection. As for the experimental part: Freshly prepared oocytes of maturation stage VI were bought from Ecocyte Bioscience (Castrop-Rauxel, Germany) and, after overnight delivery, plated into 96-well plates (Greiner no. 651101) for microinjection on a ROBOOCYTE R16 system (Multichannel Systems MCS GmbH, Reutlingen, Germany). Each oocyte was injected with roughly 50 nL of RNA solution. The solution for expressing receptors composed of the human α1, β2 and γ2 subunits contained 3 pg/nL of α1 and β2 RNA and 15 pg/nL of γ2 RNA. The solution for expressing human α2β3γ2 receptors contained 2.5 pg/nL of α2 and β3 RNA, 5 pg/nL of γ2 RNA and 10 pg/nL of GABARAP RNA. The solution for expressing human α3β3γ2 receptors contained 1.3 pg/nL of α3 and β3 RNA and 6.5 pg/nL of γ2 RNA. The solution for expressing human α5β3γ2 receptors contained 1.3 pg/nL of α5 and β3 RNA and 13 pg/nL of γ2 RNA. […] After the microinjection the oocytes were kept at 20 °C temperature until the electrophysiological experiment. Experiments were done 3 to 5 days later on the ROBOOCYTE instrument which employs the two-microelectrode voltage-clamp technique for membrane voltage control and current measurement. […] During current recording and compound testing the cell membrane was constantly clamped to − 80 mV. Current signals were recorded and stored on a PC-type computer using the ROBOOCYTE software.
During the microinjection and up to the electrophysiological experiment the oocytes were kept in a solution containing 88 mM NaCl, 1 mM KCl, 2.5 mM NaHCO3, 10 mM HEPES (AppliChem GmbH, Darmstadt, Germany), 0.82 MgSO4, 0.33 mM Ca(NO3)2, 0.33 mM CaCl2, 100 U/mL penicillin (GIBCO, ThermoFisher Scientific) and 100 µg/mL streptomycine (GIBCO, ThermoFisher Scientific). The pH was adjusted to 7.5. During the experiment the voltage-clamped oocyte was constantly superfused by a solution containing 90 mM NaCl, 1 mM KCl, 5 mM HEPES (AppliChem), 1 mM MgCl2 and 1 mM CaCl2 (pH 7.4). GABA and test compounds were added to this solution. GABA concentrations were chosen according to previously determined concentration–response relations for the different human GABAA receptor subunit combinations. Concentrations evoking approximately 10% of a maximal response were selected, i.e., 8 µM for α1β2γ2, 6 µM for α2β3γ2, 10 µM for α3β3γ2 and 5 µM for α5β3γ2. Solutions containing GABA or test compounds were freshly prepared at least every second day. […] Compounds were further diluted in DMSO and finally in extracellular saline to reach a DMSO concentration of 0.1%. The same amount of DMSO was added to the control solutions without test compounds.
During the experiment the solutions were fed into the well containing the voltage-clamped oocyte via Teflon tubings connected by electromagnetic valves which allowed rapid switching between different solutions (controlled by the ROBOCYTE software). Approximately 1–2 min after impaling an oocyte and switching to voltage-clamp mode GABA was applied for 90 s to record a control response. Thereafter the oocyte was washed with saline for 160 s followed by another 90 s GABA application. Then 30 s after the onset of the second GABA application the system switched to a solution containing GABA plus the test compound. Each oocyte was used for testing one concentration of a single test compound (for α5β3γ2: 1 nM: n = 8, 10 nM: n = 8, 100 nM: n = 7, 1000 nM: n = 7).
In this case each GABA application lasted 110 s and the rest period between the two GABA applications was 190 s long.
On each 96-well plate 3–6 oocytes were used for testing a known NAM at the BZD binding site, β-CCM (FG7106), as a positive control. […] Maximally effective concentrations of β-CCM were used for each subunit combination, i.e., 100 nM β-CCM for α1β2γ2, 300 nM for α2β3γ2 or α3β3γ2 and 1 µM for α5β3γ2.

Where [1] appears, read: 3 and 10 mg/kg p.o. + diazepam 6 mg/kg i.p.
[2] abbreviates: concentration–response curve, n = 7.

Chain of human GABAA α5β3γ2 (P31644 32-462): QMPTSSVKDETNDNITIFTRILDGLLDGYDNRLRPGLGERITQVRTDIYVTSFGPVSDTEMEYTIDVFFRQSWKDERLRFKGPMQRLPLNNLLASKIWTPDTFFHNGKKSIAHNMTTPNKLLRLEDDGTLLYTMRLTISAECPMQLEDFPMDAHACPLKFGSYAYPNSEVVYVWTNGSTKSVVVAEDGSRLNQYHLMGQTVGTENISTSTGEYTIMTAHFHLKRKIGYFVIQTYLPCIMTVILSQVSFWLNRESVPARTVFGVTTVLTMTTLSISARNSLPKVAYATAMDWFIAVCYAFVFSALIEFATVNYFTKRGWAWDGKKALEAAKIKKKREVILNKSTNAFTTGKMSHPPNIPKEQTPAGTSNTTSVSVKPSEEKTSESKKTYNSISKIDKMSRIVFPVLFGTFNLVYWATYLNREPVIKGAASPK
Chain of human GABAA α5β3γ2 (P28472 26-473 partner): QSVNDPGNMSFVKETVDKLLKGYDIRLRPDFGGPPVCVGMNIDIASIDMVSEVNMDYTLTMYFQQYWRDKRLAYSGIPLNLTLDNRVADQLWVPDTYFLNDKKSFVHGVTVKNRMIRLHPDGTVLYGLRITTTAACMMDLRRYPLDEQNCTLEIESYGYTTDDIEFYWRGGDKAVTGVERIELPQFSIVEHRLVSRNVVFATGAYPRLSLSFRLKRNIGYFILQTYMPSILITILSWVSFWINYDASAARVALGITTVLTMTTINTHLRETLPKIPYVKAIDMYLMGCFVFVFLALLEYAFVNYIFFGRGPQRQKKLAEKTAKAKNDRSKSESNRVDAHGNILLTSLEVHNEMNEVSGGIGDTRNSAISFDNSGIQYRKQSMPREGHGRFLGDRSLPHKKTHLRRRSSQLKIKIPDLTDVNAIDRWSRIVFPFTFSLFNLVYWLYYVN
Chain of human GABAA α5β3γ2 (P18507 40-475): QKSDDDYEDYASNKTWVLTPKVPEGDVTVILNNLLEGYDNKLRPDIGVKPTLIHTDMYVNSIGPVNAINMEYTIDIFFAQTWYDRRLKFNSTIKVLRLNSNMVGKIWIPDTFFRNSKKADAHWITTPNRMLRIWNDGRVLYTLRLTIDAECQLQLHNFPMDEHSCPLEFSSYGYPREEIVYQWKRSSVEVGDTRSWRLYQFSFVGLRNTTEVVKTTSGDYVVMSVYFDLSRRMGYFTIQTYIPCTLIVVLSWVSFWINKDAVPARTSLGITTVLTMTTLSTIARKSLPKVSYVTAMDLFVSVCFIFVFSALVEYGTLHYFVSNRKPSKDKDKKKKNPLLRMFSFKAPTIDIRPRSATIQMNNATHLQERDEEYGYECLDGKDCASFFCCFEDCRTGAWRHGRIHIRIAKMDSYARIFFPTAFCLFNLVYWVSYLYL

In the case of `Cc1onc(-c2ccc(F)cc2)c1COc1ccc(C(=O)N2CCS(=O)(=O)CC2)cn1` [basmisanil], the “probe trial, percent time spent in the previous platform quadrant” value in the series on male Lister Hooded rats (10 mg/kg p.o. + diazepam 6 mg/kg i.p., 30 min before test) is reported as “attenuated the diazepam-induced deficit”. In the series with male Lister Hooded rats (setting [1]), the “latency and pathlength across six learning trials” value was “did not significantly reduce the diazepam-induced increase in latency and pathlength”; the swim speed entry is listed as “no effect on swim speed”. For the same compound, in the series on male Sprague-Dawley rats, the “prepulse inhibition induced by prepulse intensities 72, 76, 80, 84 dB” value is given as “does not impair prepulse inhibition”. Moreover, the “decrease of GABA-induced current under co-treatment with flumazenil” value on human GABAA α5β3γ2 (100 nM basmisanil + flumazenil 30 or 1000 nM) was “blocked by co-treatment with flumazenil”. Further, the “reduction of the GABA-evoked current” value at human GABAA α5β3γ2 (1 µM, highest concentration tested, 5 µM GABA) stood at 42 ± 1%. At human GABAA α5β3γ2 (setting [2]), the Hill slope worked out at 0.9 and the pIC50 is 8.10.
